Assays:
[1] = Stability of anhydrous form versus monohydrate form of Beraprost-314d; assay and total impurities by HPLC after storage at 40° C.; assay type: physicochemical; details: for Assay / Total Impurities: 40° C./60% RH, HPLC
Description: The Beraprost-314d monohydrate is stable at room temperature. For example, the formation of dimer and/or unwanted esterification byproducts by the presence of hydrates can be avoided. […] The assay and total impurities of Beraprost-314d monohydrate and anhydrous Beraprost-314d were measured by HPLC after treatment at 40° C., as shown in Table 3.

[2] = Crystalline form transformation of Beraprost-314d monohydrate Form A to Form B, followed by XRPD after isothermal standing; assay type: physicochemical; details: for XRPD pattern after heating (crystalline form): 24 hours
Description: X-ray Powder Diffraction (XRPD) Analysis: The XRPD patterns were collected on a Bruker D2 PHASER diffractometer with fixed divergence slits and 1D LYNXEYE detector. The samples (ca. 100 mg) were placed flat on a sample holder. The prepared samples were analyzed over a 2θ range from 5° to 50° with step size of 0.02 degrees and step time of 1 second using CuKα radiation at a power of 10 mA and 30 kV The CuKβ radiation was removed by a divergent beam nickel filter,
The critical temperature (T*). of crystalline form transformation of Beraprost-314d monohydrate Form A and Form B was determined. Crystalline Beraprost-314d monohydrate Form A (0.10 g, from Example 3) was placed in glass vials, and heated to 25° C., 27° C., 29° C., 31° C., 33° C., and 35° C. and isothermal stood for 24 hours.

[3] = 3 days, listed as Beraprost-314d monohydrate, monohydrate

| Assay ([1]; 1 day) | Total Impurities ([1]; 1 day) | Assay ([1]; 2 days) | Total Impurities ([1]; 2 days) | Assay [1, 3] | Total Impurities [1, 3] | Assay ([1]; 3 days, monohydrate) | Total Impurities ([1]; 3 days, monohydrate) | Assay ([1]; 3 days) | Total Impurities ([1]; 3 days) | Critical temperature (T*) of crystalline form transformation from Form A to Form B ([2]; isothermal standing for 24 hours, XRPD) | SMILES | Stability compared with the anhydrous form ([1]; 40° C. for 3 days) | XRPD pattern after heating (crystalline form) ([2]; 25° C., 27° C. and 29° C.) | XRPD pattern after heating (crystalline form) ([2]; 31° C., 33° C. and 35° C.) |
| --- | --- | --- | --- | --- | --- | --- | --- | --- | --- | --- | --- | --- | --- | --- |
| 99.89% | 0.17% | 99.77% | 0.25% | no apparent decrease | 0.33% | 99.69% | 0.33% | – | – | – | CC#CC[C@H](C)[C@H](O)/C=C/[C@@H]1[C@H]2c3cccc(CCCC(=O)O)c3O[C@H]2C[C@H]1O.O [Beraprost-314d Monohydrate, Beraprost-314d monohydrate] | more stable than the anhydrous Beraprost-314d | – | – |
| 99.30% | 0.84% | 99.01% | – | – | – | – | – | 98.95% | 1.19% | – | CC#CC[C@H](C)[C@H](O)/C=C/[C@@H]1[C@H]2c3cccc(CCCC(=O)O)c3O[C@H]2C[C@H]1O [Anhydrous Beraprost-314d, Beraprost-314d] | – | – | – |
| – | – | – | – | – | – | – | – | – | – | about 30±5 °C | CC#CC[C@H](C)[C@H](O)/C=C/[C@@H]1[C@H]2c3cccc(CCCC(=O)O)c3O[C@H]2C[C@H]1O.O [Beraprost-314d monohydrate] | – | remain Form A without any Form B feature peaks | an intermediate state containing both Form A and Form B |

From patent publication US10577341B1, “Beraprost-314d monohydrate crystals and methods for preparation thereof” (CHIROGATE INTERNATIONAL INC., priority 2018, dated 2020)
